Experimental data reported in patent US20120052125A1, “Cholesteryl Sulfate-Containing Composition As A Haemostatic” (DR. SUWELACK SKIN & HEALTH CARE AG, priority 2008, published 2012).

Columns and labels:
[1] = tested on: porcine whole blood; assay: Sonoclot analysis (clotting time ACT and clot rate) in recalcified porcine whole blood; format: biochemical; settings: for ACT / clot rate: 360 μl porcine whole blood, recalcified with 20 μl 0.2 M calcium chloride, 1.1 mg carrier, SCS as 4% by wt vesicle solution
Excerpt: The haemostatic effect of cholesteryl sulfate as such was investigated using a Sonoclot®Coagulation & Platelet Function Analyzer by Scienco® Inc with regard to the clotting time (ACT) and clot rate. In this case, the ACT value indicates the time until the onset of the first thickening of the blood, which matches the time required by the system for generating a first blood clot. The clot rate indicates the speed with which the clot solidifies, and is there fore a measure for fibrin formation.
For the investigations presently illustrated, different quantities of cholesteryl sulfate in the form of its sodium salt was dissolved in methanol, and aliquots were transferred into the reaction vessels. By evaporating the methanol, the cholesteryl sulfate was precipitated as a layer on the bottom of the reaction vessel. Then 360 μl of porcine citrate blood were put into the reaction vessel, and 20 μl 0.2 M calcium chloride solution were subsequently added for recalcification. Both the time until coagulation (ACT) as well as the clot formation rate were measured with the Sonoclot Analyzer.
In order to show the enhanced effects in blood clotting of the combination of cholesteryl sulphate as a haemostatic agent and a haemostatic carrier material such as collagen the Sonoclot-Test has been carried out according to example 1.
The test condition and materials were in accordance with example 1.
As a carrier material freeze-dried, milled collagen from the company Dr. Suwelack Skin & Health Care AG (SHC) as well as collagen from bovine tendon from the company Sigma Aldrich have been examined in the Sonoclot-Analyzer and compared to cholesteryl sulphate as well as to a combination of the collagen and cholesteryl sulphate (SCS).
For the examination of the collagen carrier material 1.1 mg carrier material were transferred into the reaction vessels containing 360 μl porcine whole blood. 12.5 μl isosmotic saline solution (NaCl) were subsequently admixed and 20 μl 0.2 M calcium chloride solution were subsequently added for recalcification. Both the time until coagulation (ACT) as well as the clot formation rate were measured with the Sonoclot Analyzer. High clot rate indicates fast fibrin formation and thus fast clot formation.
For the examination of the collagen carrier material in combination with cholesteryl sulphate instead of isosmotic saline solution 12.5 μl of a cholesteryl sulphate vesicle solution containing 4% by wt cholesteryl sulphate is admixed with the carrier material.
For the examination of the cholesteryl sulphate a 4% by wt vesicle solution alone was tested accordingly.
The vesicle solution was prepared as described in example 2, Nr. 2 a).

[2] = Solubility of cholesteryl sulfate salts; format: physicochemical
[3] = Stability of cholesteryl sulfate salts; format: physicochemical

CC(C)CCC[C@@H](C)[C@H]1CC[C@H]2[C@@H]3CC=C4C[C@@H](OS(=O)(=O)[O-])CC[C@]4(C)[C@H]3CC[C@]12C.[Na+] [12.5 μl SCS, sodium cholesteryl sulfate]
ACT ([1]; Experiment 1): 90 s | clot rate ([1]; Experiment 1): 17 | ACT ([1]; Experiment 2): 81 s | clot rate ([1]; Experiment 2): 29 | effect on coagulation ([1]; non-activated system, no pre-incubation): coagulation-promoting effect | water-solubility [2]: only small water-solubility

CC(C)CCC[C@@H](C)[C@H]1CC[C@H]2[C@@H]3CC=C4C[C@@H](OS(=O)(=O)[O-])CC[C@]4(C)[C@H]3CC[C@]12C.[K+] [potassium cholesteryl sulfate]
solubility compared with sodium cholesteryl sulfate ([2]; e.g. in methanol): less soluble | water-solubility [2]: only small water-solubility | stability compared with sodium cholesteryl sulfate [3]: greater stability
